# Reference: US20190070159A1, “NOVEL PHARMACEUTICAL USES” (TAKEDA PHARMACEUTICAL COMPANY LIMITED, priority 2015, published 2019)
# Tests used:
# [1] = system: non-erosive reflux disease (NERD); details: NERD patients, cited from earlier work
# gastric acid secretion [2] = assay: 24-hour gastroesophageal pH monitoring, phase 3 study in PPI-resistant EE patients; type: in vivo, human
# Procedure: (§1) This was a phase 3, randomized, double-blind, parallel-group, multicenter study to evaluate the dose-response relationships of the acid-inhibitory effect and efficacy of TAK-438 (20 mg and 40 mg) in patients with PPI-resistant EE of LA Classification Grades A to D.
# (§2) A patient with PPI-resistant EE was defined as a patient who had EE of LA Classification Grades A to D endoscopically confirmed at the examination in the run-in period after receiving a regular or higher PPI dose for at least 8 weeks until immediately before the start of the run-in period. This study consisted of a 7- to 14-day run-in period and an 8-week treatment period. Subjects who entered the run-in period orally received 1 capsule of the PPI lansoprazole 30 mg once daily after breakfast for at least 7 days, but not more than 14 days. As a rule, subjects underwent endoscopic examination 2 days before the end of the run-in period, after receiving the study medication for the run-in period for at least 5 days. The acid-inhibitory effect of the study medication during the run-in period was evaluated by monitoring gastroesophageal pH for 24 hours, beginning from the day before the end of the run-in period. The subject was then randomized at a 1:1 ratio to receive either TAK-438 20 mg or 40 mg and entered the treatment period. Subjects orally received the assigned medications once daily after breakfast for 8 weeks from the day after the end of the run-in period.
# Efficacy: The primary endpoint was the time course of gastroesophageal pH changes over 24 hours at steady state in the treatment period. The primary measure was gastric and esophageal pH 4 holding time ratios (HTRs). Other measures were gastric and esophageal pH 1, 2, 3, 5, 6, and 7 HTRs, mean gastric pH, and mean esophageal pH.
# [3] = system: PPI-resistant EE of LA Classification Grades A to D; assay: EE healing rate after 8-week treatment, phase 3 study in PPI-resistant EE patients; type: in vivo, human
# Procedure: as §1, §2
# Subject eligibility for this study required that the subject had received a regular or higher dose of PPI for EE treatment for at least 8 weeks until immediately before the start of the run-in period. In addition, the subject had EE for which a regular or higher dose of PPI had not been effective, or more specifically, the subject had EE of LA Classification Grades A to D endoscopically confirmed at the examination in the run-in period.
# The secondary endpoint was the EE healing rate after 8-week treatment with TAK-438.
# [4] = Safety and tolerability, phase 3 study in PPI-resistant EE patients; type: in vivo, human; details: subjects with PPI-resistant EE of LA Grades A to D, 20 mg or 40 mg for 8 weeks
# Procedure: as §1
# as §2, with “Subjects orally received the assigned medications once daily after breakfast for 8 weeks from the day after the end of the run-in period.” left out
# [5] = system: GERD symptoms (heartburn and acid regurgitation); assay: Clinical study in PPI partial responders (NERD and LA grade A EE), symptom diary; type: in vivo, human; details: TAK-438 20 mg QD or 40 mg QD for 4 weeks
# Procedure: A study is held to evaluate TAK-438 (20 mg QD and 40 mg QD) in subjects who have a history of heartburn-predominant GERD despite an adequate course of PPI treatment and who are then confirmed to have a partial response to a 4-week treatment course with a PPI (esomeprazole 40 mg QD).
# Subjects are eligible for participation in the study if they: • have a documented history of symptoms of both heartburn and acid regurgitation prior to entry into the study; • have a history of heartburn-predominant GERD despite an adequate course of PPI treatment; • continue to have symptoms of heartburn (with or without regurgitation) following 4 weeks treatment with a high dose of esomeprazole 40 mg QD; • have symptoms of heartburn (with or without regurgitation) which increase following a 2-week washout period compared with the prior 4 week course of high dose esomeprazole 40 mg QD.
# The subjects entered into the study are NERD and mild (LA grade A, as defined by the Los Angeles Classification) erosive esophagitis (EE). […]
# gastric acid secretion [6] = details: rats, versus the PPI lansoprazole; cited from earlier work
# erosive esophagitis (EE) = details: patients with erosive esophagitis; cited from earlier work
# pH holding time = details: cited from earlier work
# [7] = TAK-438 20 mg once daily, after 2 weeks, subjects with PPI-resistant EE
# [8] = TAK-438 40 mg once daily, after 2 weeks, subjects with PPI-resistant EE
# [9] = both treatment groups (20 mg and 40 mg), after 2 weeks
compound,measurement,setting,value
Cc1cccc(C)c1CNc1cc(C(=O)NCCO)cn2c(C)c(C)nc12 [AZD0865],clinical benefit over esomeprazole in treatment of NERD symptoms,[1]; 4 weeks,did not provide clinical benefit over esomeprazole
same,duration of effect,[1],"prolonged, dose-dependent duration of effect"
same,inhibition of acid production,[1],rapid inhibition of acid production
"CNCc1cc(-c2ccccc2F)n(S(=O)(=O)c2cccnc2)c1.O=C(O)/C=C/C(=O)O [TAK-438, 1-[5-(2-fluorophenyl)-1-(pyridin-3-ylsulfonyl)-1H-pyrrol-3-yl]-N-methylmethanamine]",mean 24-hour esophageal pH 4 HTR,gastric acid secretion [2]; [7],98.41%
same,mean 24-hour gastric pH 4 HTR,gastric acid secretion [2]; [7],96.46%
same,effect on gastric acid secretion,"gastric acid secretion [2]; TAK-438 20 mg or 40 mg, nighttime as well as daytime, subjects with PPI-resistant EE",suppressed gastric acid secretion
same,mean 24-hour esophageal pH 4 HTR,gastric acid secretion [2]; [8],99.86%
same,mean 24-hour gastric pH 4 HTR,gastric acid secretion [2]; [8],100.00%
same,"increases in gastric and esophageal pH 4 HTRs, 40 mg versus 20 mg group","gastric acid secretion [2]; after 2 weeks, differences between groups not statistically significant",greater in the TAK-438 40 mg group than in the TAK-438 20 mg group
same,"mean 24-hour esophageal pH 1, 2, 3, 6, and 7 HTRs, change from baseline",gastric acid secretion [2]; [9],remained almost unchanged
same,"mean 24-hour esophageal pH 5 HTR, change from baseline",gastric acid secretion [2]; [9],slightly increased
same,"mean 24-hour gastric pH 2, 3, 5, 6, and 7 HTRs, change from baseline",gastric acid secretion [2]; [9],increased from baseline
same,mean 24-hour gastric pH 1 HTR,"gastric acid secretion [2]; both treatment groups (20 mg and 40 mg), after 2 weeks of TAK-438, baseline also 100.00%",100.00%
same,"mean gastric pH, change from baseline","gastric acid secretion [2]; both treatment groups, 12-hour and 24-hour periods",increased from baseline
same,mean gastric pH 4 HTRs during daytime and nighttime,"gastric acid secretion [2]; both treatment groups, changes greater during nighttime than daytime",increased during both the daytime and nighttime with statistical significance
same,"mean esophageal pH, change from baseline","gastric acid secretion [2]; both treatment groups, lesser extent than mean gastric pH",also increased
same,significance of increase from baseline in 24-hour gastric pH 4 HTR,"gastric acid secretion [2]; both treatment groups, lower limits of 95% CI of mean changes greater than 0",statistically significant
same,significance of change from baseline in 24-hour esophageal pH 4 HTR,"gastric acid secretion [2]; either treatment group (20 mg, 40 mg)",not statistically significant
same,EE healing rate after 8-week treatment,"[3]; TAK-438 20 mg group, 4 out of 9 subjects",44.4%
same,EE healing rate after 8-week treatment,"[3]; TAK-438 40 mg group, 5 out of 9 subjects",55.6%
same,overall efficacy,"[3]; subjects with PPI-resistant EE of LA Grades A to D, 20 mg or 40 mg",effective
same,safety and tolerability,[4],"safe, and well tolerated"
same,heartburn and/or regurgitation symptoms,[5],can reduce heartburn and/or regurgitation symptoms throughout the whole day and night
same,percentage of heartburn-free days and nights (24-hour periods),[5],can increase the percentage of heartburn-free days and nights
same,inhibitory action on gastric acid secretion compared with lansoprazole,gastric acid secretion [6],more potent and longer-lasting
same,efficacy in treatment of EE and maintenance of EE healing,erosive esophagitis (EE),effective for the treatment of EE and maintenance of EE healing
same,time to near maximal effect on pH holding time,"pH holding time; after dosing, maintained with chronic dosing",≤ 24 hours
same,onset of action,"pH holding time; after the first dose, single and multiple repeat-dosing studies",rapid onset of action after the first dose
